Usually pKi stands for the negative decadic logarithm of the Ki, by convention in mol/L. Read a low pKi as a high Ki. Broadly, the pIC50 is the IC50 on a negative log10 scale, so that one unit is a factor of ten. Lower therefore signals a large IC50.

The structures appear in SMILES notation. pIC50, pKi: −log10 of the molar value.

Assay [1] concerns the target DNA polymerase III subunit alpha (Bacillus subtilis (strain 168), UniProt O34623). The assay is described as follows: DNA Polymerase Activity Assay. To be noted: pH 7.5; 30 °C. Here is the method: (§1) Reaction velocities were determined at each dGTP concentration and used to create double reciprocal plots of velocity versus dGTP concentration. The plots were used to assess the mechanism of inhibition and calculate the apparent Ki value for the inhibitor.

Assay [2] addresses DNA polymerase III subunit alpha (Escherichia coli (strain K12), UniProt P10443). The assay is described as follows: DNA Polymerase Activity Assay. As to conditions: pH 7.5; 30 °C. As to the method: as §1
Assay [3] addresses T1, DNA polymerase alpha subunit B (Bos taurus, UniProt Q58D13).
T1 sequence (Q58D13 whole entry): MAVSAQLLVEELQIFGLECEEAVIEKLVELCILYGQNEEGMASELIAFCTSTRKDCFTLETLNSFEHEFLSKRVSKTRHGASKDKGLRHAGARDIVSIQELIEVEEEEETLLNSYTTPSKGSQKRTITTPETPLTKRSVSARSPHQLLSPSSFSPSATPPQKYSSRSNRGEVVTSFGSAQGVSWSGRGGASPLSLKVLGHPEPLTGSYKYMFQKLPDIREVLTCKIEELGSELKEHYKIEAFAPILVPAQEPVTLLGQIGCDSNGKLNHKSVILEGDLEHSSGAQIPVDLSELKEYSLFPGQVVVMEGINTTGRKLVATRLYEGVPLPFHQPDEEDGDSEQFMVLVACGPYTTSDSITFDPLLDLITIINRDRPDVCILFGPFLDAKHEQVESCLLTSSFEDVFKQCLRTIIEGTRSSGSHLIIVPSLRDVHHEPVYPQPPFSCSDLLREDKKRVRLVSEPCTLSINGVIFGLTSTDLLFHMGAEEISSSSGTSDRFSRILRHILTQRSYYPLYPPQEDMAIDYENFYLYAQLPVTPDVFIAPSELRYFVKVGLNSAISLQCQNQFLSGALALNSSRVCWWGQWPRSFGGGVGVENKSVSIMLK
The assay is described as follows: DNA Polymerase Activity Assay. As to conditions: pH 7.5; 37 °C. As to the method: as §1

In assay [4] the target is DNA topoisomerase 4 subunit A [V210L]/B (Bacillus subtilis, UniProt Q45066+Q59192, V210L). The assay is described as follows: DNA Topoisomerase IV Assay. As to conditions: pH 7.5; 30 °C.
The target of assay [5] is DNA gyrase subunit A/B (Bacillus subtilis (strain 168), UniProt P05652+P05653). The assay is described as follows: DNA Gyrase Activity Assay. As to conditions: pH 7.5; 30 °C.
Sequence of DNA gyrase subunit A/B (P05653 whole entry): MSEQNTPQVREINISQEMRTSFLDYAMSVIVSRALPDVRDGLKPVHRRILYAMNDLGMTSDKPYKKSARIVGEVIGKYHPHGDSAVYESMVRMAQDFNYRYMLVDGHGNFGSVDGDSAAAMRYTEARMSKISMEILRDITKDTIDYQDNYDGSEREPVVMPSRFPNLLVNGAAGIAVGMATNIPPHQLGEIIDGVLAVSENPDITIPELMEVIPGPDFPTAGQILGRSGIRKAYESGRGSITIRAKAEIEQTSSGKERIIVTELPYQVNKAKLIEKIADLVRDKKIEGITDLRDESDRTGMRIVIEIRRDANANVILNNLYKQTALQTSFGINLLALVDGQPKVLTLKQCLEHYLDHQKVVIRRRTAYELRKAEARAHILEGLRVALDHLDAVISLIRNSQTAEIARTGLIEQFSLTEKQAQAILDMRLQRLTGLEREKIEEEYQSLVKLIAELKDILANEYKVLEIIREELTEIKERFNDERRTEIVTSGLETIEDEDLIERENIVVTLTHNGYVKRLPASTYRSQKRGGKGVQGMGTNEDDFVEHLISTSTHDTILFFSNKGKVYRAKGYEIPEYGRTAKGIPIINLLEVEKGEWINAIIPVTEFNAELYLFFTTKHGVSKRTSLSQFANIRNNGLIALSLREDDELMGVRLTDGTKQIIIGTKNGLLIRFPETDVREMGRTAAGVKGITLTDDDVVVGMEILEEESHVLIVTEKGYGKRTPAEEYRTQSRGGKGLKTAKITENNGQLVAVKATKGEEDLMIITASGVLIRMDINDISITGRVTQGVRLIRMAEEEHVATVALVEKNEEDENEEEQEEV
Sequence of DNA gyrase subunit A/B (P05652 whole entry): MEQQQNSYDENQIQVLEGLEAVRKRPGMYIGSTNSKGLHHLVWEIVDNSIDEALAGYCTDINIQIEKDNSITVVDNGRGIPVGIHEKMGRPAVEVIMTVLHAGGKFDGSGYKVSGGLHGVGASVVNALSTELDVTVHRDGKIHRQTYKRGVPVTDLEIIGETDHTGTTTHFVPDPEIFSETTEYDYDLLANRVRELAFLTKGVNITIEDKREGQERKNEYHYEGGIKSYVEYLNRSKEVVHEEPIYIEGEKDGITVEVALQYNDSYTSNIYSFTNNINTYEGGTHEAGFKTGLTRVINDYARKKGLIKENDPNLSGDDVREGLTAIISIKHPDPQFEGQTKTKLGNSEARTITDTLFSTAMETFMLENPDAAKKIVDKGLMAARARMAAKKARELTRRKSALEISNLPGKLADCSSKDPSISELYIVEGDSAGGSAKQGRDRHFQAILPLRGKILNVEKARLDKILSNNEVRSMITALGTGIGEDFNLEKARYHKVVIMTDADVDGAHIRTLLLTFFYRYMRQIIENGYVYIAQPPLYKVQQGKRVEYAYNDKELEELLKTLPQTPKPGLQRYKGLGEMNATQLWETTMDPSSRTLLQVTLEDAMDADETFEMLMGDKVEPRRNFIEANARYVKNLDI

Sequence of DNA polymerase III subunit alpha (Escherichia coli (strain K12), UniProt P10443) (P10443 whole entry): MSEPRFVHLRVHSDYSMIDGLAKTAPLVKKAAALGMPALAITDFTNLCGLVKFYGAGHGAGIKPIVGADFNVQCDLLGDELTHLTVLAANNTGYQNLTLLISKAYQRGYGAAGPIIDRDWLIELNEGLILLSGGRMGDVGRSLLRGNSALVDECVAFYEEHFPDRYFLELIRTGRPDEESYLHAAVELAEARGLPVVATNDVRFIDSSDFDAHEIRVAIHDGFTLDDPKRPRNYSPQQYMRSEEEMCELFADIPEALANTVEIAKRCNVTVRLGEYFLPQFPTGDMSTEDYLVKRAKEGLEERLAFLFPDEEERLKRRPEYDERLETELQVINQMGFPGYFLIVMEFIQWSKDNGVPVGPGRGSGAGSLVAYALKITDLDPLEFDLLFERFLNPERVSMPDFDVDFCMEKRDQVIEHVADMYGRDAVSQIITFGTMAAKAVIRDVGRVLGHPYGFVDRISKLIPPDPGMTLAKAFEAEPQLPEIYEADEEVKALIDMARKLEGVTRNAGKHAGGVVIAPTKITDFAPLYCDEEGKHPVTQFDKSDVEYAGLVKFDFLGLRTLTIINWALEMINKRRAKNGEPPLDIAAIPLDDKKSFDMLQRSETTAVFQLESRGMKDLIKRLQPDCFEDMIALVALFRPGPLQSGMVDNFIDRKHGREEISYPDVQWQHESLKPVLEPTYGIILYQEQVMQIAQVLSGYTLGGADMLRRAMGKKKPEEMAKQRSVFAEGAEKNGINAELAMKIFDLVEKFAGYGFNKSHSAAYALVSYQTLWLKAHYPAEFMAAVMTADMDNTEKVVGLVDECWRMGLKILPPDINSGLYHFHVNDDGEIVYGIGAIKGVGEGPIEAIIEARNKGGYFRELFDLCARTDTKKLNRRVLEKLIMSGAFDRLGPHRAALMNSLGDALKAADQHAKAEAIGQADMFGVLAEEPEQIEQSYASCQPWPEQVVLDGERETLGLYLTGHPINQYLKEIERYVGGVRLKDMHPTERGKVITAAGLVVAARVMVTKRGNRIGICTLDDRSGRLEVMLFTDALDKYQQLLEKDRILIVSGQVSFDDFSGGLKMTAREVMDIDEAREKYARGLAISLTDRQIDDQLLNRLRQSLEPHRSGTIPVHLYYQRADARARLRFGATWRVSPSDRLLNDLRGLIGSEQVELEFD
Sequence of DNA topoisomerase 4 subunit A [V210L]/B (Q45066 whole entry V210L): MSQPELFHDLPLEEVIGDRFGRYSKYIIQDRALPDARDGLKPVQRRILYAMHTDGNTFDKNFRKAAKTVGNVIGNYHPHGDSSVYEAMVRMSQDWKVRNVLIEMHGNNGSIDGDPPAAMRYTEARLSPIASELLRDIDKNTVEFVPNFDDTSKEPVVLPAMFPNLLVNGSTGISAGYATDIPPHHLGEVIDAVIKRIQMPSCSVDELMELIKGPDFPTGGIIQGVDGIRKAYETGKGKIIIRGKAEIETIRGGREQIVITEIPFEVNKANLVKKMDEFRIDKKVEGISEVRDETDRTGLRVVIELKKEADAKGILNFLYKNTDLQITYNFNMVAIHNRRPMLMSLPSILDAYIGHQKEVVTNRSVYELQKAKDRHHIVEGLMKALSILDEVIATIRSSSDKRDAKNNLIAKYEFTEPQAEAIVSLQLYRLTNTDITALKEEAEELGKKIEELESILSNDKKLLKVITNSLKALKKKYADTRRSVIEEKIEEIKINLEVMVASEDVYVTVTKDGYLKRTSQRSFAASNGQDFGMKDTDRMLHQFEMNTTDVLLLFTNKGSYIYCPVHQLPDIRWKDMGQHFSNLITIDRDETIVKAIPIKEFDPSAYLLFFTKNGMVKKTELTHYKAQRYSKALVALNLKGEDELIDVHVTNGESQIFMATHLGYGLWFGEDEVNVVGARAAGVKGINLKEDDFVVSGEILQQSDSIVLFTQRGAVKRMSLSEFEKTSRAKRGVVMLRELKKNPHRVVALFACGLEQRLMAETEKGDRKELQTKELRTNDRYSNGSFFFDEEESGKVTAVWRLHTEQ
Sequence of DNA topoisomerase 4 subunit A [V210L]/B (Q59192 whole entry): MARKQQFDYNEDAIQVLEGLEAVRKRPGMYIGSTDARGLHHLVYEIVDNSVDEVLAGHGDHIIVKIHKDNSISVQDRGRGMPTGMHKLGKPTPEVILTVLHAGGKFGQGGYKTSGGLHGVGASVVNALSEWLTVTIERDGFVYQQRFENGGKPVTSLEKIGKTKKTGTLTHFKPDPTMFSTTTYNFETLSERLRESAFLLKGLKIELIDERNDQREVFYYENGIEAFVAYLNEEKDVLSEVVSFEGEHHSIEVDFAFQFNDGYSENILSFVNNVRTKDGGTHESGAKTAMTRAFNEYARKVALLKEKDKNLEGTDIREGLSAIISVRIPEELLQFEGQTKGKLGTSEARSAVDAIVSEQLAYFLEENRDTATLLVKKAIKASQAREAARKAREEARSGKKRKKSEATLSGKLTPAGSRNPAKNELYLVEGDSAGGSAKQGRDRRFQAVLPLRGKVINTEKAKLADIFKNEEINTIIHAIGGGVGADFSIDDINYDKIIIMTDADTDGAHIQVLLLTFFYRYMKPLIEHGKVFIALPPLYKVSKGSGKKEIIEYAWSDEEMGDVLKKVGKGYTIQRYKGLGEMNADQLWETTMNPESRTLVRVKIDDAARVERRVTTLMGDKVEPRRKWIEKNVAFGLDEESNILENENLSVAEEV

Consider `CCc1cc(Nc2cc(=O)n(CCCCN3CCN(c4c(F)cc5c(=O)c(C(=O)O)cn(C6CC6)c5c4F)CC3C)c(=O)[nH]2)ccc1C` (stereo unspecified), for which the pKi in assay [1], in assay [2] and in assay [3] was under 3.32 throughout.

On to `CCc1cc(Nc2cc(=O)n(CCCCO)c(=O)[nH]2)ccc1C` [HBEMAU], for which the pKi in assay [3] is under 3.00. The pIC50 in assay [4] and in assay [5] was under 3.30 in each case.

Source of the values: BindingDB's records for doi:10.1128/AAC.01311-05 (Microbiotix, 2007).
